Assay results: US20220290114A1 (priority 2019, published 2022)
Read-outs that look alike come from different tables or passages of the source.

Assays:
[1] = system: C. perfringens reference strains (NCTC 2837, 8235, 8237, 8238, 8239, 8359, 8678, 10578); type: cell-based, Clostridium perfringens; details: for effect on C. perfringens growth in spot assay: 10 μg/ml chloramphenicol, 20 μg/ml spectinomycin, 1 mg/mL lysozyme, 1 mg/mL disodium EDTA; for effect in spot assay: NCTC 8237, FIG. 4, freshly-plated cells and cell lawns
[2] = system: Bifidobacterium adolescentis (DSMZ 20083); test: Spot assay of clarified lysates on non-Cp species; type: cell-based; set-up: key: The presence of antimicrobial activity is denoted by a ‘+’; the lack of antimicrobial activity is denoted by a ‘−’
[3] = system: Clostridium colinum (DSMZ 6011); test: Spot assay of clarified lysates on non-Cp species; type: cell-based; set-up: key: The presence of antimicrobial activity is denoted by a ‘+’; the lack of antimicrobial activity is denoted by a ‘−’
[4] = system: Clostridium cellobioparum (DSMZ 1351); test: Spot assay of clarified lysates on non-Cp species; type: cell-based; set-up: key: The presence of antimicrobial activity is denoted by a ‘+’; the lack of antimicrobial activity is denoted by a ‘−’
[5] = system: Clostridium leptum (DSMZ 753); test: Spot assay of clarified lysates on non-Cp species; type: cell-based; set-up: key: The presence of antimicrobial activity is denoted by a ‘+’; the lack of antimicrobial activity is denoted by a ‘−’
[6] = system: C. perfringens NCTC reference strains and APHA field isolates; type: cell-based, Clostridium perfringens; set-up: key to bacteriolytic activity, cell lawn: (−) indicates no visible lysis; +/−, +, ++, +++ correspond to increasingly clear lysis halos around the paper disks; +/−, +, ++, +++ correspond to increasingly clear lysis halos around the paper disks; +/−, +, ++, +++ correspond to increasingly clear lysis halos around the paper disks; +/−, +, ++, +++ correspond to increasingly clear lysis halos around the paper disks
[7] = system: C. perfringens strain Cp6; type: cell-based, Clostridium perfringens
[8] = system: C. perfringens reference strains (NCTC 2837, 8237, 8238, 8239); type: cell-based, Clostridium perfringens
[9] = system: C. perfringens Cp6 PGN; type: biochemical, Clostridium perfringens; details: 54D extract, 3× replicates, fresh PGN stock
[10] = NCTC 2837, FP (freshly-plated cells)

CC1(C)S[C@@H]2[C@H](NC(=O)[C@H](N)c3ccccc3)C(=O)N2[C@H]1C(=O)O [Ampicillin]
−: antimicrobial activity in spot assay (clearance zone) ([1]; NCTC 2837, CL (cell lawn)) | antimicrobial activity in spot assay (clearance zone) ([1]; NCTC 8235, CL) | antimicrobial activity in spot assay (clearance zone) ([1]; NCTC 8237, CL) | antimicrobial activity in spot assay (clearance zone) ([1]; NCTC 8238, CL) | antimicrobial activity in spot assay (clearance zone) ([1]; NCTC 8239, CL) | antimicrobial activity in spot assay (clearance zone) ([1]; NCTC 8359, CL) | antimicrobial activity in spot assay (clearance zone) ([1]; NCTC 8678, CL) | antimicrobial activity in spot assay (clearance zone) ([1]; NCTC 10578, CL) | antimicrobial activity in spot assay (clearance zone) ([2]; DSMZ 20083, CL) | antimicrobial activity in spot assay (clearance zone) ([3]; DSMZ 6011, CL) | antimicrobial activity in spot assay (clearance zone) ([3]; DSMZ 6011, FP) | antimicrobial activity in spot assay (clearance zone) ([4]; DSMZ 1351, CL) | antimicrobial activity in spot assay (clearance zone) ([5]; DSMZ 753, CL)
+: antimicrobial activity in spot assay (clearance zone) [1, 10] | antimicrobial activity in spot assay (clearance zone) ([1]; NCTC 8235, FP) | antimicrobial activity in spot assay (clearance zone) ([1]; NCTC 8237, FP) | antimicrobial activity in spot assay (clearance zone) ([1]; NCTC 8238, FP) | antimicrobial activity in spot assay (clearance zone) ([1]; NCTC 8239, FP) | antimicrobial activity in spot assay (clearance zone) ([1]; NCTC 8359, FP) | antimicrobial activity in spot assay (clearance zone) ([1]; NCTC 8678, FP) | antimicrobial activity in spot assay (clearance zone) ([1]; NCTC 10578, FP) | antimicrobial activity in spot assay (clearance zone) ([2]; DSMZ 20083, FP) | antimicrobial activity in spot assay (clearance zone) ([4]; DSMZ 1351, FP)

O=C(N[C@H](CO)[C@H](O)c1ccc([N+](=O)[O-])cc1)C(Cl)Cl [Chloramphenicol]
no effect: effect on C. perfringens growth in spot assay [1] | effect in spot assay [1]

O=C([O-])CN(CCN(CC(=O)[O-])CC(=O)O)CC(=O)O.[Na+].[Na+] [disodium EDTA]
inhibitory effect: effect on freshly-plated cells in spot assay ([1]; 10 mM EDTA, screening set 2)
no effect: effect on C. perfringens growth in spot assay [1]

NC[C@H]1O[C@H](O[C@H]2[C@H](O)[C@@H](O[C@H]3O[C@H](CO)[C@@H](O)[C@H](N)[C@H]3O)[C@H](N)C[C@@H]2N)[C@H](O)[C@@H](O)[C@@H]1O [kanamycin]
no effect: effect in spot assay [1]

CN[C@@H]1[C@H](O)[C@H](NC)[C@H]2O[C@@]3(O)C(=O)C[C@@H](C)O[C@H]3O[C@@H]2[C@H]1O [spectinomycin]
no effect: effect on C. perfringens growth in spot assay [1] | effect in spot assay [1]

Lysozyme: Chicken hen egg white lysozyme, reference enzybiotic
minimal bacteriolytic activities: bacteriolytic activity in turbidity reduction assay [8]
−: antimicrobial activity in spot assay (clearance zone) ([1]; NCTC 2837, CL (cell lawn)) | antimicrobial activity in spot assay (clearance zone) [1, 10] | antimicrobial activity in spot assay (clearance zone) ([1]; NCTC 8235, CL) | antimicrobial activity in spot assay (clearance zone) ([1]; NCTC 8235, FP) | antimicrobial activity in spot assay (clearance zone) ([1]; NCTC 8237, CL) | antimicrobial activity in spot assay (clearance zone) ([1]; NCTC 8237, FP) | antimicrobial activity in spot assay (clearance zone) ([1]; NCTC 8238, CL) | antimicrobial activity in spot assay (clearance zone) ([1]; NCTC 8238, FP) | antimicrobial activity in spot assay (clearance zone) ([1]; NCTC 8239, CL) | antimicrobial activity in spot assay (clearance zone) ([1]; NCTC 8239, FP) | antimicrobial activity in spot assay (clearance zone) ([1]; NCTC 8359, CL) | antimicrobial activity in spot assay (clearance zone) ([1]; NCTC 8678, CL) | antimicrobial activity in spot assay (clearance zone) ([1]; NCTC 8678, FP) | antimicrobial activity in spot assay (clearance zone) ([1]; NCTC 10578, CL) | antimicrobial activity in spot assay (clearance zone) ([1]; NCTC 10578, FP) | bacteriolytic activity, cell lawn ([6]; APHA B00907, 50 μg/ml) | growth inhibition, freshly plated cells ([6]; APHA B00907, 50 μg/ml) | bacteriolytic activity, cell lawn ([6]; APHA B00917, 50 μg/ml) | growth inhibition, freshly plated cells ([6]; APHA B00917, 50 μg/ml) | bacteriolytic activity, cell lawn ([6]; APHA B00954, 50 μg/ml) | growth inhibition, freshly plated cells ([6]; APHA B00954, 50 μg/ml) | bacteriolytic activity, cell lawn ([6]; APHA B00964, 50 μg/ml) | growth inhibition, freshly plated cells ([6]; APHA B00964, 50 μg/ml) | bacteriolytic activity, cell lawn ([6]; APHA B00976, 50 μg/ml) | growth inhibition, freshly plated cells ([6]; APHA B00976, 50 μg/ml) | bacteriolytic activity, cell lawn ([6]; APHA G00033, 50 μg/ml) | growth inhibition, freshly plated cells ([6]; APHA G00033, 50 μg/ml) | bacteriolytic activity, cell lawn ([6]; APHA W100102, 50 μg/ml) | growth inhibition, freshly plated cells ([6]; APHA W100102, 50 μg/ml) | bacteriolytic activity, cell lawn ([6]; NCTC 2837, 50 μg/ml) | growth inhibition, freshly plated cells ([6]; NCTC 2837, 50 μg/ml) | bacteriolytic activity, cell lawn ([6]; NCTC 8237, 50 μg/ml) | growth inhibition, freshly plated cells ([6]; NCTC 8237, 50 μg/ml) | bacteriolytic activity, cell lawn ([6]; NCTC 8238, 50 μg/ml) | growth inhibition, freshly plated cells ([6]; NCTC 8238, 50 μg/ml) | bacteriolytic activity, cell lawn ([6]; NCTC 8239, 50 μg/ml) | growth inhibition, freshly plated cells ([6]; NCTC 8239, 50 μg/ml) | antimicrobial activity in spot assay (clearance zone) ([2]; DSMZ 20083, CL) | antimicrobial activity in spot assay (clearance zone) ([2]; DSMZ 20083, FP) | antimicrobial activity in spot assay (clearance zone) [3] | antimicrobial activity in spot assay (clearance zone) [4] | antimicrobial activity in spot assay (clearance zone) [5]
no effect: effect on C. perfringens growth in spot assay [1]
>2500 µg/mL: MBC ([7]; Cp6, ~2.1E4 cells/mL) | MIC ([7]; Cp6, ~2.1E4 cells/mL, overnight at 41° C.)
+: antimicrobial activity in spot assay (clearance zone) ([1]; NCTC 8359, FP)
> 2.5 mg/mL: lysozyme loading not able to inhibit overnight growth ([7]; Cp6, ~2.1E4 cells/mL)
>174 µM: MBC ([7]; Cp6, molar basis) | MIC ([7]; Cp6, molar basis)

B1: AMI3CPF4969: endolysin sequence, SEQ ID NO: 11 (protein)
chain: QSRSDSNFKGIDISNWQKGINLNQLKERGYDVCYIKITEGKGYVDPCFEENYNKAIAAGMKVGVYHYWRGTSSAIEQANNIVRTLGNKHIDCKIAIDVEQTDGLSYGELNNSVLQLAEELERLIGAEVCIYCNTNYARNVLDSRLGKYSLWVAHYGVNKPGDNPIWDKWAGFQYSENGTSNVNGSLDLDEFTEEIFINKESSKVTENKLFSTNARALVALDPRDNPSDNYNDLGEIYEGERIQVLAEVCDKEDYLPVKYWKDSEGRESGKVWIRSKQDYMMIDTYHRVFNVITQLDARYEPSSDSATMGYVKNGERLYVHRTEGNYSLCTYFAGNGYKTAWFTAKYLER
modifications: AMI3CPF4969
≤ 44 fold: fold enhancement of PGN degradation activity in 54D algal extract vs PBS, pH 7.0 [9]
